# System: AP-1 induced transcriptional activity
# Assay: Cellular Transrepressional Assay (AP-1 luciferase reporter, PMA-activated A549 cells)
# Format: cell-based
# Details: for AP-1 Max % inh (Cellular Transrepression Assay) / Emax: maximum inhibition; for Emax: A549, 7 h, read-out: AP-1 Max % inh (Cellular Transrepression Assay)
# In short: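 Compounds tested from 0.1 nM to 40 μM during a 7 h PMA (10 ng/ml) stimulation of A549 cells stably transfected with 7× AP-1 sites driving luciferase. Repression expressed as % reduction of PMA-induced luminescence; EC50 by curve fitting.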
# [1] = Homo sapiens, Cellular Transrepression Assay
# [2] = Homo sapiens, A549, Cellular Transrepression Assay
Compound,EC50 (Cellular Transrepression Assay) [nM],AP-1 Max % inh (Cellular Transrepression Assay) (Cellular Transrepression Assay) [%],Emax [1] [%],EC50 [2] [nM],"EC50 (Cellular Transrepression Assay, listed as 166^a) [nM]"
CN(C)c1ccc(-c2ccc3c(n2)Oc2ccccc2C3C(C)(C)C(=O)Nc2nncs2)cc1 (stereo not shown) [Example 176],118,43.54,,,
CC(C)(C(=O)Nc1nncs1)C1c2ccccc2Oc2cc(OC(=O)NCC3CCCCC3)ccc21 (stereo not shown) [Example 392],49.7,44.82,,,
CCNS(=O)(=O)c1ccc(-c2ccc3c(n2)Oc2ccccc2C3C(C)(C)C(=O)Nc2nncs2)cc1 (stereo not shown) [Example 234],405,27.08,,,
Cc1ccc(-c2csc(NC(=O)C(C)(C)C3c4ccccc4Oc4ccccc43)n2)c2ccccc12 [Example 31],,,69.4,179,
Cc1nnc(NC(=O)C(C)(C)C2c3ccc(-c4ccc(C(=O)N(C)C)cc4)nc3Oc3c(F)cccc32)s1 (stereo not shown) [Example 166],43.4,,56.1,,14.5
CC(C)(C(=O)Nc1nncs1)C1c2ccccc2Oc2ncccc21 (stereo not shown) [Example 65],,,32.2,345,
COc1ccc(CNc2ccc3c(n2)Oc2ccccc2C3C(C)(C)C(=O)Nc2nncs2)cc1 (stereo not shown) [Example 128],,,66.3,92,
COc1cccc2c1Oc1ccccc1C2C(C)(C)C(=O)Nc1nc(-c2ccc(F)c3ccccc23)cs1 (stereo not shown) [Example 82],,,72.6,126,
Cc1nnc(NC(=O)C(C)(C)C2c3ccc(-c4ccc(C(=O)N(C)C)c(F)c4)nc3Oc3c(F)cccc32)s1 (racemic) [Example 167],36.6,57.94,,,
COc1ccc2c(n1)Oc1ccccc1C2C(C)(C)C(=O)Nc1nc(-c2ccc(F)c3ccccc23)cs1 (stereo not shown) [Example 78],,,65.1,164,
CN(C)C(=O)c1ccc(-c2ccc3c(n2)Oc2ccccc2[C@@H]3C(C)(C)C(=O)Nc2nnc(CF)s2)cc1 [Example 432],,,40.2,52.7,
CCCCNC(=O)Oc1ccc2c(c1)Oc1ccccc1C2C(C)(C)C(=O)Nc1nncs1 (stereo not shown) [Example 388],,,57.6,34.2,
CC(C)(C(=O)Nc1ncns1)[C@H]1c2ccccc2Oc2nc(-c3ccc(C(=O)N4CCOCC4)cc3)ccc21 [Example 457],,,51.9,16.6,
Cc1nnc(NC(=O)C(C)(C)[C@H]2c3ccccc3Oc3nc(-c4ccc(C(=O)N5CCOCC5)c(Cl)c4)ccc32)s1 [Example 473],,,52.5,40.2,
CC(C)(C(=O)Nc1nncs1)[C@H]1c2ccccc2Oc2nc(-c3ccc(C(=O)N4CCS(=O)(=O)CC4)cc3)ccc21 [Example 310],,,52.9,786,
CC(C)(C(=O)Nc1nncs1)[C@H]1c2ccccc2Oc2nc(-c3ccc(C(=O)N4CCCCC4)c(F)c3)ccc21 [Example 249],11.2,42.38,,,
CCN(CC)C(=O)c1ccc(-c2ccc3c(n2)Oc2ccccc2[C@@H]3C(C)(C)C(=O)Nc2nncs2)cc1F [Example 259],,,23.3,72.2,
CN(C)C(=O)c1ccc(-c2ccc3c(n2)Oc2ccccc2C3C2(C(=O)Nc3nncs3)CCCC2)cc1 (stereo not shown) [Example 484],,,29.8,19.3,
CC(C)(C(=O)Nc1nncs1)[C@H]1c2ccccc2Oc2nc(-c3ccncc3)ccc21 [Example 219],180,35.87,,,

Compound,EC50 (Cellular Transrepression Assay) [nM],AP-1 Max % inh (Cellular Transrepression Assay) (Cellular Transrepression Assay) [%],Emax [1] [%],EC50 [2] [nM],"EC50 (Cellular Transrepression Assay, listed as 166^a) [nM]"
CN(C)C(=O)c1ccc(-c2ccc3c(n2)Oc2c(F)cccc2C3C(C)(C)C(=O)Nc2nncs2)cc1F (racemic) [Example 165],25.6,56.92,,,
"CN(C)C(=O)c1ccc(-c2ccc3c(n2)Oc2ccccc2[C@@H]3C2(C(=O)Nc3nncs3)CCC2)cc1 (single isomer, unassigned) [Example 480]",,,44,27,
CCNC(=O)Oc1ccc2c(c1)Oc1ccccc1[C@@H]2C(C)(C)C(=O)Nc1nncs1 [Example 371],,,48.7,22.3,
CC(C)(C(=O)Nc1nncs1)[C@H]1c2ccccc2Oc2nc(-c3ccc(C(=O)N4CCCC4)cc3)ccc21 [Example 252],34.6,60.94,,,
CC(C)(C(=O)Nc1nncs1)[C@H]1c2ccccc2Oc2nc(-c3ccc(C(=O)N4CC(F)(F)C(F)(F)C4)c(F)c3)ccc21 [Example 337],,,51.5,103,
CN(C)C(=O)c1ccc(-c2ccc3c(n2)Oc2ccccc2[C@@H]3C(C)(C)C(=O)Nc2nncs2)cc1F [Example 250],,,48.4,17.8,
CC(C)(C(=O)Nc1nncs1)[C@H]1c2ccccc2Oc2nc(-c3ccc(C(=O)N4CCC(F)(F)C4)c(Cl)c3)ccc21 [Example 340],,,67.6,54.8,
CCc1nnc(NC(=O)C(C)(C)[C@H]2c3ccccc3Oc3nc(-c4ccc(C(=O)N(C)C)cc4)ccc32)s1 [Example 447],,,53,95.4,
CC(C)(C(=O)Nc1nncs1)C1c2ccccc2Oc2cc(OC(=O)NC3CCCCC3)ccc21 (stereo not shown) [Example 373],32.8,,45.6,,
CC(C)(C(=O)Nc1nncs1)[C@H]1c2ccccc2Oc2nc(N3CCC4(CC3)OCCO4)ccc21 [Example 139],,,26.8,95.5,
CC(C)(C(=O)Nc1nc(-c2cccc3ccccc23)cs1)C1c2ccccc2-c2ccccc21 [Example 19],,,52.7,,
CC(C)(C(=O)Nc1nncs1)C1c2ccccc2Oc2nc(-c3ccc(N)cc3)ccc21 (stereo not shown) [Example 200],134,53.76,,,
CC(C)Oc1ccc(-c2ccc3c(n2)Oc2ccccc2C3C(C)(C)C(=O)Nc2nncs2)cc1F (stereo not shown) [Example 211],41.3,49.63,,,
CC(C)Oc1ccc(-c2ccc3c(n2)Oc2c(F)cccc2C3C(C)(C)C(=O)Nc2nncs2)cc1F (racemic) [Example 163],16.8,49.60,,,
CC(C)Cc1ccc(-c2ccc3c(n2)Oc2ccccc2C3C(C)(C)C(=O)Nc2nncs2)cc1 (stereo not shown) [Example 208],12.2,54.08,,,
CC(C)(C(=O)Nc1nnc(CF)s1)[C@H]1c2ccccc2Oc2nc(-c3ccc(C(=O)N4CCCC4)cc3)ccc21 [Example 433],,,46.2,41,
CN(C)C(=O)c1nnc(NC(=O)C(C)(C)[C@H]2c3ccccc3Oc3nc(-c4ccc(C(=O)N5CCCC5)c(F)c4)ccc32)s1 [Example 420],,,42.1,41.9,
CC(C)(C(=O)Nc1nc(Cc2ccc(-c3ccncc3)cc2)cs1)C1c2ccccc2S(=O)(=O)c2ccccc21 [Example 10],,,86.5,16.8,
CC(C)(C(=O)Nc1ncns1)[C@H]1c2ccccc2Oc2nc(-c3ccc(C(=O)N4CCCC4)cc3)ccc21 [Example 455],,,58.6,24.6,

Compound,EC50 (Cellular Transrepression Assay) [nM],AP-1 Max % inh (Cellular Transrepression Assay) (Cellular Transrepression Assay) [%],Emax [1] [%],EC50 [2] [nM],"EC50 (Cellular Transrepression Assay, listed as 166^a) [nM]"
COc1ccc(CCNC(=O)Oc2ccc3c(c2)Oc2ccccc2C3C(C)(C)C(=O)Nc2nncs2)cc1 (stereo not shown) [Example 384],61.9,42.30,,,
CCCCCCCCNC(=O)Oc1ccc2c(c1)Oc1ccccc1C2C(C)(C)C(=O)Nc1nncs1 (stereo not shown) [Example 374],,,50.9,30.9,
CC(C)(C(=O)Nc1nncs1)[C@H]1c2ccccc2Oc2nc(NC(=O)NCCN3CCCC3)ccc21 [Example 401],,,35.1,778,
Cc1nnc(NC(=O)C(C)(C)C2c3ccc(-c4ccc(C(=O)N(C)C)c(F)c4)nc3Oc3c(F)cccc32)s1 (stereo not shown) [Example 165],,,53.4,9.8,
CC(C)(O)c1ccc(-c2ccc3c(n2)Oc2ccccc2[C@@H]3C(C)(C)C(=O)Nc2nncs2)cc1 [Example 404],,,70.6,22.5,
Cc1ccc(-c2csc(NC(=O)C(C)(C)C3c4ccccc4Cc4ccccc43)n2)c2ccccc12 [Example 16],,,59.9,303,
CC(C)(C(=O)Nc1nncs1)[C@H]1c2ccccc2Oc2nc(N3CCCC3)ccc21 [Example 141],,,44.2,92.1,
CC(C)Oc1ccc(-c2ccc3c(n2)Oc2ccccc2[C@@H]3C(C)(C)C(=O)Nc2nccs2)cc1F [Example 246],,,81.8,325,
CN(C)C(=O)c1ccc(-c2ccc3c(n2)Oc2ccccc2C3C(C)(C)C(=O)Nc2nncs2)cc1 (stereo not shown) [Example 172],13.2,59.04,,,
COC(=O)Cc1ccc(-c2ccc3c(n2)Oc2ccccc2[C@@H]3C(C)(C)C(=O)Nc2nncs2)cc1 [Example 238],,,62.3,601,
COc1ccc(Cc2csc(NC(=O)C(C)(C)C3c4ccccc4Oc4cc(OC)ccc43)n2)cc1 (stereo not shown) [Example 53],78.5,72.00,,,
CC(C)N(C)C(=O)c1ccc(-c2ccc3c(n2)Oc2ccccc2[C@@H]3C(C)(C)C(=O)Nc2nncs2)cc1F [Example 329],583,40.81,,,
CC(C)(C(=O)Nc1nncs1)[C@H]1c2ccccc2Oc2nc(-c3ccc(C(=O)N4CCCC4C#N)cc3)ccc21 (stereo partly shown) [Example 316],,,35.9,60.9,
CC(C)(C(=O)Nc1nncs1)[C@H]1c2ccccc2Oc2nc(-c3ccc(C(=O)N4CCC(F)(F)CC4)c(Cl)c3)ccc21 [Example 339],,,38.4,185,
CC(C)(C(=O)Nc1nncs1)[C@H]1c2ccccc2Oc2nc(-c3ccc(C(=O)N4CCCC4)c(Cl)c3)ccc21 [Example 341],14.8,50.27,,,
CN(C)C(=O)c1ccc(-c2ccc3c(n2)Oc2ccccc2[C@@H]3C(C)(C)C(=O)Nc2nnc(C(F)(F)F)s2)cc1 [Example 446],,,27.7,413,
Cc1nnc(NC(=O)C(C)(C)C2c3ccccc3Oc3cc(O)ccc32)s1 (stereo not shown) [Example 100],,,71.7,256,
CC(C)(C(=O)Nc1nc(-c2ccc(F)c3ccccc23)cs1)C1c2ccccc2S(=O)(=O)c2ccccc21 [Example 11],,,68.5,882,

# Reference: patent US8034940B2, “Modulators of glucocorticoid receptor, AP-1, and/or NF-κB activity and use thereof” (Bristol-Myers Squibb Company, priority 2006, dated 2011)
